Source: ChEMBL document CHEMBL1201862, “PubChem BioAssay data set” (2004)
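Five concentrations, 48 hours, 96-well plates. Abbreviation: GI50, concentration required for 50% inhibition of growth.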 Activity calls are given as the source filed them. Cut-off read from the data, not from the text of the source: active = GI50 up to about 1.1 µM and inactive = higher.

Experiments:
Assay in all cases: NCI tumour cell line growth inhibition, 48 h
SK-MEL-28 = tested on: SK-MEL-28
HT-29 = tested on: HT-29
IGROV-1 = tested on: IGROV-1
DMS-114 = tested on: DMS-114
RXF 631 = tested on: RXF 631
HCT-116 = tested on: HCT-116
CAKI-1 = tested on: CAKI-1
SF-268 = tested on: SF-268
DMS-273 = tested on: DMS-273
MOLT-4 = tested on: MOLT-4
UO-31 = tested on: UO-31
CCRF-CEM = tested on: CCRF-CEM
KM-20L2 = tested on: KM-20L2
COLO 205 = tested on: COLO 205
DLD-1 = tested on: DLD-1
SW-620 = tested on: SW-620
M19-MEL = tested on: M19-MEL
A498 = tested on: A498
EKVX = tested on: EKVX
LXFL 529 = tested on: LXFL 529
HOP-92 = tested on: HOP-92
SF-539 = tested on: SF-539
SN12C = tested on: SN12C
U-251 = tested on: U-251
HCT-15 = tested on: HCT-15
SK-MEL-5 = tested on: SK-MEL-5
NCI-H23 = tested on: NCI-H23
NCI-H460 = tested on: NCI-H460
M14 = tested on: M14
A549 = tested on: A549
UACC-62 = tested on: UACC-62
K562 = tested on: K562
ACHN = tested on: ACHN
NCI-H522 = tested on: NCI-H522
RPMI-8226 = tested on: RPMI-8226
SNB-19 = tested on: SNB-19
SK-OV-3 = tested on: SK-OV-3
OVCAR-8 = tested on: OVCAR-8
XF498 = tested on: XF498
RXF 393 = tested on: RXF 393
HL-60 = tested on: HL-60
HOP-62 = tested on: HOP-62
LOX IMVI = tested on: LOX IMVI
HOP-18 = tested on: HOP-18
786-0 = tested on: 786-0
TK-10 = tested on: TK-10

Measured: GI50

Cn1c2c(c3ccccc31)CCN(CCCN1CCN(c3cccc(Cl)c3)CC1)C2=O
25.1 µM: HCT-15
inactive: SK-MEL-28 17.4 µM | HT-29 12.5 µM | IGROV-1 26.4 µM | DMS-114 14.2 µM | RXF 631 24.7 µM | HCT-116 12.3 µM | CAKI-1 20.8 µM | SF-268 15.6 µM | DMS-273 24.1 µM | MOLT-4 11.6 µM | UO-31 11 µM | CCRF-CEM 31.5 µM | KM-20L2 2.87 µM | COLO 205 15.1 µM | DLD-1 23 µM | SW-620 28 µM | M19-MEL 20.2 µM | A498 3.05 µM | EKVX 41.7 µM | LXFL 529 16.2 µM | HOP-92 3.91 µM | SF-539 18.1 µM | SN12C 21.4 µM | U-251 3.27 µM | SK-MEL-5 15.1 µM | NCI-H23 19.5 µM | NCI-H460 5.81 µM | M14 17.1 µM | A549 49.3 µM | UACC-62 17.4 µM | K562 14.8 µM | ACHN 10.9 µM | NCI-H522 18.8 µM | RPMI-8226 12.2 µM | SNB-19 27.4 µM | SK-OV-3 38.5 µM | OVCAR-8 23.7 µM | XF498 10.4 µM | RXF 393 14.9 µM | HL-60 6.85 µM | HOP-62 18.7 µM | LOX IMVI 20.2 µM | HOP-18 22.9 µM | 786-0 17.1 µM | TK-10 27.8 µM
